From US8415469B2, “Compounds and methods for kinase modulation, and indications therefor” (Plexxikon Inc., priority 2005, dated 2013)

Columns and labels:
Assay type in all cases: biochemical
MAP2K1 = target: T1, MAP2K1 (Homo sapiens, UniProt Q02750); assay: Z'-Lyte FRET kinase assay (Invitrogen), MAP2K1; details: read-out: IC50, activity toward kinase MAP2K1
T1 construct: purchased Invitrogen (assay run by Invitrogen)

IKK beta = target: T2, IKK beta (Homo sapiens, UniProt O14920); assay: AlphaScreen kinase assay, IKK beta; details: read-out: IC50, activity toward kinase IKK beta
T2 sequence (O14920 1-756): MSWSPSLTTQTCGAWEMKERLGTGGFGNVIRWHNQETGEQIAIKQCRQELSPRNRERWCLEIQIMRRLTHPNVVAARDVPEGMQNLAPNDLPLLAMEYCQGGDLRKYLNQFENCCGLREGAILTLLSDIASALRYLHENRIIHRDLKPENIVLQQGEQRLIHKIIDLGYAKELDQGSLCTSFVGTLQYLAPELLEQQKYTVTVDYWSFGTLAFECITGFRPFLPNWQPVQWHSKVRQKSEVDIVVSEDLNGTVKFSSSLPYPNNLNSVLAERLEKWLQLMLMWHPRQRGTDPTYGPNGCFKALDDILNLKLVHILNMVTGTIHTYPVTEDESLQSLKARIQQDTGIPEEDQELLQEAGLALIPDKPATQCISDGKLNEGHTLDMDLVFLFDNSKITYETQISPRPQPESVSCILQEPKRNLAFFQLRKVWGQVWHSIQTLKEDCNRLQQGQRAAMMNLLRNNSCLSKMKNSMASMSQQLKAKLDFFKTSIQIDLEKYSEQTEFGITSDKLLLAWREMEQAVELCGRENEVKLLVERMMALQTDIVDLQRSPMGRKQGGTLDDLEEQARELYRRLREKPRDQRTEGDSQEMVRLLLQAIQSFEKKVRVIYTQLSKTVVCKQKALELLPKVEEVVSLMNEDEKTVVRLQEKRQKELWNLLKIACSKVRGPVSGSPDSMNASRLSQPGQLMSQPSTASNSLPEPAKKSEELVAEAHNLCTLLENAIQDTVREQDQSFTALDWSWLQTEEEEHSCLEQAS
Description: AlphaScreen assays were done using compounds dissolved in DMSO to a concentration of 20 mM. The compounds were diluted accordingly to the desired final concentrations in each sample well, using 1:3 serial dilution for a total of 8 concentration points. Plates were prepared such that each kinase reaction is 20 μl in 1× kinase buffer, 5% DMSO and 10 μM ATP. After incubation of the kinase reaction for 1 hour at room temperature, 5 μl of donor beads in stop buffer (50 mM EDTA in 1× kinase buffer) was added, the sample was mixed and incubated for 20 minutes at room temperature before adding 5 μl of acceptor beads in stop buffer. The samples were incubated for 60 minutes at room temperature and the signal per well was read on AlphaQuest reader.

Stk6 = target: T3, Stk6 (Homo sapiens, UniProt O14965); assay: Z'-Lyte FRET kinase assay (Invitrogen), Stk6; details: read-out: IC50, activity toward kinase Stk6
T3 construct: purchased Invitrogen (Carlsbad, Calif.), screening service
T3 sequence (O14965 1-403): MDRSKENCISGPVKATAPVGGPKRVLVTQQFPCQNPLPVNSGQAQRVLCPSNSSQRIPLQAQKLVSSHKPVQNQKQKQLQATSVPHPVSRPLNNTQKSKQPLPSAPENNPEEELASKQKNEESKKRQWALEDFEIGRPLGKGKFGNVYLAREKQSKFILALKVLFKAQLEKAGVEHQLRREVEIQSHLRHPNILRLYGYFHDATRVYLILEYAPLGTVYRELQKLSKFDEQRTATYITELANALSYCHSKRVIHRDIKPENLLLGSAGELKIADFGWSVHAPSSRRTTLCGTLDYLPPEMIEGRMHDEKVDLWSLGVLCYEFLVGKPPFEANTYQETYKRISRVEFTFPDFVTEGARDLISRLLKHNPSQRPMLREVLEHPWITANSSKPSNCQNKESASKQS

Kdr = target: T4, Kdr (Homo sapiens, UniProt P35968); assay: Z'-Lyte FRET kinase assay (Invitrogen), Kdr; details: read-out: IC50, activity toward kinase Kdr
T4 construct: purchased Invitrogen (assay run by Invitrogen)

Jak3 = target: T5, Jak3 (Homo sapiens, UniProt P52333); assay: AlphaScreen kinase assay, Jak3; details: read-out: IC50, activity toward kinase Jak3
T5 sequence (P52333 1-1124): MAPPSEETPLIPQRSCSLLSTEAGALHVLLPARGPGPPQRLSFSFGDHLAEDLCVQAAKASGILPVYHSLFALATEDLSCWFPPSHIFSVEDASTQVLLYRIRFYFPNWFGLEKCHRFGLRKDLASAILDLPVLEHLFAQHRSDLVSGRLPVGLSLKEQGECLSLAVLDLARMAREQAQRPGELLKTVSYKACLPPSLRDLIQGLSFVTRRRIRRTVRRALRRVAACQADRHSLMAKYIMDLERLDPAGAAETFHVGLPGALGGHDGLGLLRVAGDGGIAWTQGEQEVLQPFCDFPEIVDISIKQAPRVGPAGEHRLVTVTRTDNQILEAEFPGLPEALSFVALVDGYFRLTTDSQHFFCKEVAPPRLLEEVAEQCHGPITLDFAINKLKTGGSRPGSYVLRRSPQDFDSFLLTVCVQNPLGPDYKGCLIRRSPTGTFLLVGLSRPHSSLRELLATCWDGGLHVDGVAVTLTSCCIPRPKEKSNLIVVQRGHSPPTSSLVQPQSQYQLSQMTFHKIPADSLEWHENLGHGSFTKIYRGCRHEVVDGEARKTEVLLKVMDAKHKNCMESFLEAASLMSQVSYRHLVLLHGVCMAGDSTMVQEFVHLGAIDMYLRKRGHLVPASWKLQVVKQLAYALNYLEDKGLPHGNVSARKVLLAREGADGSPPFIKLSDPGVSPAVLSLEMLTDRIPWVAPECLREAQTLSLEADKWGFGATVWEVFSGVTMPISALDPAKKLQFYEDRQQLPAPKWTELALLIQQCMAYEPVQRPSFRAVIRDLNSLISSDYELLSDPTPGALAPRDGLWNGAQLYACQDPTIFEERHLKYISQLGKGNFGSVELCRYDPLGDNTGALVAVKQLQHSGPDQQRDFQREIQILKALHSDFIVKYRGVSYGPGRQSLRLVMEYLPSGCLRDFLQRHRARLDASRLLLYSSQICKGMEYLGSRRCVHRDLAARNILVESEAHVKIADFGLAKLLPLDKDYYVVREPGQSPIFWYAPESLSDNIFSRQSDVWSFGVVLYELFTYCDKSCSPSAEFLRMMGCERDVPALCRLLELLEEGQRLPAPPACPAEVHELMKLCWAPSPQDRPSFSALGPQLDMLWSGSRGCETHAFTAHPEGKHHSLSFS
Excerpt: AlphaScreen assay was used to screen additional kinases. The assay is similarly dependent on the phosphorylation of a peptide substrate. In this assay, an antibody that recognizes phosphorylated substrate is bound to an acceptor bead. The peptide substrate is attached to biotin, which binds to a donor head that contains streptavidin. Thus phosphorylated substrate is bound by antibody and streptavidin, bringing the donor and acceptor heads into close proximity when kinase is not inhibited. The donor produces singlet oxygen which results in emission from the acceptor when they are in close proximity. Conversely, when kinase is inhibited, the donor and acceptor beads are not associated and the emission from the acceptor is reduced.
AlphaScreen assays were done using compounds dissolved in DMSO to a concentration of 20 mM. The compounds were diluted accordingly to the desired final concentrations in each sample well, using 1:3 serial dilution for a total of 8 concentration points.

FGFR1 = target: T6, FGFR1 (Homo sapiens, UniProt P11362, C488A/C584S); assay: AlphaScreen kinase assay, FGFR1; details: read-out: IC50, activity toward kinase FGFR
T6 construct: P1351.pET N6 BI-PTP FGFR A458-E765-X C488A, C584S; made in house; host or cells: E. coli (PTP1B co-expressed)

B-Raf V600E = target: T7, B-Raf V600E (Homo sapiens, UniProt P15056, V600E); assay: AlphaScreen kinase assay, B-Raf V600E; details: read-out: IC50, activity toward kinase B-Raf V600E
T7 construct: P4254. pFastBacBD-CDC37 BRAF D437-K722-X, V600E; His6 with pFastBac HT leader (TEV site) (N); made in house; host or cells: Sf9 (baculovirus; chaperone CDC37 co-expressed)

Ret = target: T8, Ret (Homo sapiens, UniProt P07949); assay: AlphaScreen kinase assay, Ret; details: read-out: IC50, activity toward kinase Ret
T8 construct: P1378.pET-SF BI-PTP RET H661-R1012 HIS; made in house
T8 sequence (P07949 with tags, fused parts or gaps): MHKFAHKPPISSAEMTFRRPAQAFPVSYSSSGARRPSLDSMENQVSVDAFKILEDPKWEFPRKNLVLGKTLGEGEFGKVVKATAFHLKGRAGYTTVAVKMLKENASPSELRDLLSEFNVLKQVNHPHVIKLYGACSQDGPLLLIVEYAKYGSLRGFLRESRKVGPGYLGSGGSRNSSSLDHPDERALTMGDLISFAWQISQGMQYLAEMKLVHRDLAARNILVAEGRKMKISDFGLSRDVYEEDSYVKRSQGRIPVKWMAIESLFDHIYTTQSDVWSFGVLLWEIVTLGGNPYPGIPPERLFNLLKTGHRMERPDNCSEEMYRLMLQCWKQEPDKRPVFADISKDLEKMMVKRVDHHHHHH

Flt1 = target: T9, Flt1 (Homo sapiens, UniProt P17948); assay: AlphaScreen kinase assay, Flt1; details: read-out: IC50, activity toward kinase Flt1
T9 construct: P1826.pETN6 BI-PTP FLT1 M799-D1165-X WT; His6 (N); made in house; host or cells: E. coli (PTP1B co-expressed)
T9 sequence (P17948 with tags, fused parts or gaps): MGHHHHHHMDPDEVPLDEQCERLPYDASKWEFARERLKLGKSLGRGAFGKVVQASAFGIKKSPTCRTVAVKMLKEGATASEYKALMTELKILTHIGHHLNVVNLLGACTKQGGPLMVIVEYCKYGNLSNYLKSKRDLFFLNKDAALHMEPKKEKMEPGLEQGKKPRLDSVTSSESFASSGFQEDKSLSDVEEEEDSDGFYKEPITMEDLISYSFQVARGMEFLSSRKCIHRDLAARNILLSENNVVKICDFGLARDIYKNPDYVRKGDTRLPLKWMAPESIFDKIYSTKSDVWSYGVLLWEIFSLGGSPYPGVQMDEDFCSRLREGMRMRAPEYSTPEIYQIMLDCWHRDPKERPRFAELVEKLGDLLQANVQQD

Akt3 = Akt3 (Homo sapiens, UniProt Q9Y243); assay: AlphaScreen kinase assay, Akt3; details: read-out: IC50, activity toward kinase Akt3
In short: (§1)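 Peptide phosphorylation detected by proximity: streptavidin donor beads bind biotinylated substrate, acceptor beads carry antibody to phosphorylated substrate, singlet oxygen transfer gives emission. Dose-response over 8 points (1:3 steps); stocks 20 mM in DMSO.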

Met = target: T10, Met (Homo sapiens, UniProt P08581); assay: AlphaScreen kinase assay, Met; details: read-out: IC50, activity toward kinase Met
T10 construct: P1818.pETN6 BI-PTP MET G1056-G1364-X WT; His6 (N); made in house; host or cells: E. coli (PTP1B co-expressed)
In short: as §1

Jnk3 = target: T11, Jnk3 (Homo sapiens, UniProt P53779); assay: AlphaScreen kinase assay, Jnk3; details: read-out: IC50, activity toward kinase Jnk3
T11 construct: purchased Upstate Biotechnology

Kit = target: T12, Kit (Homo sapiens, UniProt P10721); assay: AlphaScreen kinase assay, Kit; details: read-out: IC50, activity toward kinase Kit
T12 construct: P1332.N6 BI PTP KIT M552-K948-X COD; His6 (N); made in house; host or cells: E. coli (PTP1B co-expressed)

Measured: IC50

T4 sequence (P35968 20-1356): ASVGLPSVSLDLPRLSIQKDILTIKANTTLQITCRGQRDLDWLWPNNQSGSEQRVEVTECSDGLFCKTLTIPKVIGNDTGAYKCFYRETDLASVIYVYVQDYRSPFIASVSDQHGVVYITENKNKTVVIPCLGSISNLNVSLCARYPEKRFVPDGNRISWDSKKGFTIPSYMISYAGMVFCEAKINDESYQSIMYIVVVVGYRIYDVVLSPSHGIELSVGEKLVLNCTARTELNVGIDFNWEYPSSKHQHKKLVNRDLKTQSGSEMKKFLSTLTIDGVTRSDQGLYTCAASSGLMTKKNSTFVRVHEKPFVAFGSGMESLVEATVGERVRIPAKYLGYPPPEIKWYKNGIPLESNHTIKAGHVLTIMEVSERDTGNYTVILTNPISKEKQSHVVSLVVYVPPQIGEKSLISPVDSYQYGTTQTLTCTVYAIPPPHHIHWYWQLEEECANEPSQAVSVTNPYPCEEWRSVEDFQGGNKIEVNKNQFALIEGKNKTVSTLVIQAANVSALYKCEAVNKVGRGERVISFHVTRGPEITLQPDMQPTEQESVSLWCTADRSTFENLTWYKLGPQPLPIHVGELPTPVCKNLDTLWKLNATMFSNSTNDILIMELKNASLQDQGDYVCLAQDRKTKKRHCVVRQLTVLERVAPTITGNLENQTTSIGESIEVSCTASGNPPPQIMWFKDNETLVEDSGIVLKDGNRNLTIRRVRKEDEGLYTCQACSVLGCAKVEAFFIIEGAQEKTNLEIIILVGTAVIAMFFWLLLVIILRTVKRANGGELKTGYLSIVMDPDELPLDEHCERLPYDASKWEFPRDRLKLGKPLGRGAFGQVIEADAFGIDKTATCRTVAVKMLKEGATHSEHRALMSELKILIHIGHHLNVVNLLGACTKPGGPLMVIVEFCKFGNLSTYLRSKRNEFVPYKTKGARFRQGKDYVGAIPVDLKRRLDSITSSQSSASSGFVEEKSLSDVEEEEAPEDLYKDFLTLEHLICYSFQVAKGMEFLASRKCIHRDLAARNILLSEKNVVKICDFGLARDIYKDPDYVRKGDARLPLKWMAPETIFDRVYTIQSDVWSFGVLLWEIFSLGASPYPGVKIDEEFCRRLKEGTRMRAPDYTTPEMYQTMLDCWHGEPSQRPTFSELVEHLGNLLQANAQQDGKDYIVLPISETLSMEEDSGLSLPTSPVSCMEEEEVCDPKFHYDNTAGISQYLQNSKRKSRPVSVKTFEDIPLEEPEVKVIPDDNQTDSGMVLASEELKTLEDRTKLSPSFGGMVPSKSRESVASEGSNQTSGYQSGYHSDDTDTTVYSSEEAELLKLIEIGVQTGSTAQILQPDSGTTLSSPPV
T1 sequence (Q02750 whole entry): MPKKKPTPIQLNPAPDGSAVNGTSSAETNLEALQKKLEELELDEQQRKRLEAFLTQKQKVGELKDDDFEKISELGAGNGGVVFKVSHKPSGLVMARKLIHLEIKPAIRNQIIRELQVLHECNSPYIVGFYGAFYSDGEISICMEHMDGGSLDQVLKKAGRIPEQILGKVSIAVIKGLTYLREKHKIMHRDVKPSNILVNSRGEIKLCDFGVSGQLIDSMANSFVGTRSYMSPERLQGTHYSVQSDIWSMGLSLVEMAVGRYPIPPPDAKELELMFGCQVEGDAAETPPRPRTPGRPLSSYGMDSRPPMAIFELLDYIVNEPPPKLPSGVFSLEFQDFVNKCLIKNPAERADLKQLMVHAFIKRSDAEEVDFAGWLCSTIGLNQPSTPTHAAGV
T7 sequence (P15056 with tags, fused parts or gaps V600E): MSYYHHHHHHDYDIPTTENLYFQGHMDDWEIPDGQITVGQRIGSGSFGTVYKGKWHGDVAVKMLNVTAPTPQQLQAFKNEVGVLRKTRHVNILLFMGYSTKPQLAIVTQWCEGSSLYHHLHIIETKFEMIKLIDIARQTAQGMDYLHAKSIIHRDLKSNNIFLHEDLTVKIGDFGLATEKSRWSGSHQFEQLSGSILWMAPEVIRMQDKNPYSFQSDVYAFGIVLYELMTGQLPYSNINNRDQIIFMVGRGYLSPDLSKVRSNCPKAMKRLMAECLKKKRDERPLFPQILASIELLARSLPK
T6 sequence (P11362 458-765 C488A/C584S): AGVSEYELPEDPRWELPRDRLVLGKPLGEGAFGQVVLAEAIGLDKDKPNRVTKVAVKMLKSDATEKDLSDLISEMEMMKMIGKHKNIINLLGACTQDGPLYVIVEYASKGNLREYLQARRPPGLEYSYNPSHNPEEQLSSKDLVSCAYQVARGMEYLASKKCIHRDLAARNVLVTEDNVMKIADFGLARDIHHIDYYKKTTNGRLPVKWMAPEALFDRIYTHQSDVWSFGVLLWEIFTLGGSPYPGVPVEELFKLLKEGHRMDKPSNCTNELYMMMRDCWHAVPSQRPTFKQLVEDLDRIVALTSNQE
T10 sequence (P08581 with tags, fused parts or gaps): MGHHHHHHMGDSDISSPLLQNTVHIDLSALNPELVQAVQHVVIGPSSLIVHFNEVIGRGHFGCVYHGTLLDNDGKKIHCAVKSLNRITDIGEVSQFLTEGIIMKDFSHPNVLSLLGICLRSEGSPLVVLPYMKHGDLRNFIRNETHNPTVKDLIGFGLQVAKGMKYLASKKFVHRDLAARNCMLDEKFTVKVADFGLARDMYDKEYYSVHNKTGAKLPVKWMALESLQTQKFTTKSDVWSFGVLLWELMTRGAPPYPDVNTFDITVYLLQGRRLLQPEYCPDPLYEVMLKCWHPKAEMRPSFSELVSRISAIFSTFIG
Sequence of Akt3 (Q9Y243 whole entry): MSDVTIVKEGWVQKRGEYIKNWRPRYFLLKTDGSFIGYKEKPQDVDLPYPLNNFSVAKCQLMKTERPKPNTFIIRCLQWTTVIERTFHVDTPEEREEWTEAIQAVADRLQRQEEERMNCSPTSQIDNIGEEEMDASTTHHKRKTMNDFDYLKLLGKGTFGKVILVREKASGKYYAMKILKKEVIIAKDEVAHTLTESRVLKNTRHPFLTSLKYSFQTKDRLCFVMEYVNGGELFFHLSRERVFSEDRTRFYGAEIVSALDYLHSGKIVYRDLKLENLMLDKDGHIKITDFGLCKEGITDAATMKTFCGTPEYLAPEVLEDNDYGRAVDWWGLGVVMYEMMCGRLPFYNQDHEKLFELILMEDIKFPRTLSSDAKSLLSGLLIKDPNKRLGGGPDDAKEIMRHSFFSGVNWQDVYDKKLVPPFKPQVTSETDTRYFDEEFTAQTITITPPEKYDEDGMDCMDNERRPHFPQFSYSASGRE
T12 sequence (P10721 with tags, fused parts or gaps): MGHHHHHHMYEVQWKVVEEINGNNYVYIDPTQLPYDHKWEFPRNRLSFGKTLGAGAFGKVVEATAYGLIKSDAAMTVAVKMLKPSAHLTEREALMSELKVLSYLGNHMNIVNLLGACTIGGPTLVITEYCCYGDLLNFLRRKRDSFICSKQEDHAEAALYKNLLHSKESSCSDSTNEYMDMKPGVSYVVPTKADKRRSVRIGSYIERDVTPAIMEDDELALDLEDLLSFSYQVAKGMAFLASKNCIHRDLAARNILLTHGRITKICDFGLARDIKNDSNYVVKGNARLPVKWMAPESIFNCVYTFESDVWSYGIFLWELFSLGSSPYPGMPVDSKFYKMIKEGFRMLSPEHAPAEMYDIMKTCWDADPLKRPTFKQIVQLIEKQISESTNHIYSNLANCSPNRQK
T11 sequence (P53779 whole entry): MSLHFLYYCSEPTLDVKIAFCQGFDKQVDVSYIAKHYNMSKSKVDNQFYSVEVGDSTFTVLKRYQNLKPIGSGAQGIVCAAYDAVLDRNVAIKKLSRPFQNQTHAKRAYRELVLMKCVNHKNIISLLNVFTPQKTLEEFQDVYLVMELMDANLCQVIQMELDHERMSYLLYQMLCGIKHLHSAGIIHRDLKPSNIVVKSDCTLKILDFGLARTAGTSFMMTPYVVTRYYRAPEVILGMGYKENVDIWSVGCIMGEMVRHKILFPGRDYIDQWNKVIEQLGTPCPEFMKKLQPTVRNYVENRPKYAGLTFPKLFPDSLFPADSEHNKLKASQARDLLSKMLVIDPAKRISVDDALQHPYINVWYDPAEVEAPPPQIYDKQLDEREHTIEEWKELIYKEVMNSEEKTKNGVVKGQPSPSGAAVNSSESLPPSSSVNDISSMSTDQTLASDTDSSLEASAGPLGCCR

C=Cc1ccc(-c2ccnc3[nH]ccc23)cc1 [Compound P-0098]
≤ 10 µM: MAP2K1 | IKK beta | Stk6 | Kdr

Cc1ccc(-c2ccnc3[nH]ccc23)cc1N [Compound P-0111]
≤ 10 µM: MAP2K1 | IKK beta | Stk6 | Kdr

O=C(c1cc(F)ccc1F)c1c[nH]c2nccc(-c3ccsc3)c12 [Compound P-0119]
≤ 10 µM: Jak3 | FGFR1 | B-Raf V600E | Ret | Stk6

O=C(O)/C=C/c1cccc(-c2ccnc3[nH]cc(C(=O)c4cc(F)ccc4F)c23)c1 [Compound P-0141]
≤ 10 µM: Jak3 | B-Raf V600E | Ret | Kdr

CS(=O)(=O)c1ccc(-c2c[nH]c3ncccc23)cc1 [Compound P-0177]
≤ 10 µM: MAP2K1 | Flt1 | IKK beta | Stk6 | Kdr

OCc1cccc(-c2ccnc3[nH]cc(Sc4cccc(F)c4)c23)c1 [Compound P-0187]
≤ 10 µM: Jak3 | B-Raf V600E | Stk6

O=C(c1ccccc1F)c1c[nH]c2nccc(-c3ccccc3F)c12 [Compound P-0730]
≤ 10 µM: Jak3 | FGFR1 | B-Raf V600E | Ret | Kdr

CN(C)c1ccc(Nc2cnc3[nH]ccc3c2)cc1 [Compound P-0962]
not listed: MAP2K1 | Stk6 | Jak3 | FGFR1 | Ret
≤ 10 µM: all other assays above

CCCC(=O)Nc1ccc(F)c(C(O)c2c[nH]c3ncc(OC)cc23)c1F (stereo not shown) [Compound P-01367]
≤ 10 µM: Jak3

NC(=O)c1cccc(-c2cnc3[nH]cc(Cc4ccccc4O)c3c2)c1 [Compound P-01385]
≤ 10 µM: Jak3
